Here are results for 28 compounds from publication PMC4821887, “Identification of chemicals that mimic transcriptional changes associated with autism, brain aging and neurodegeneration” (Nature Communications, 2016).

“Also recorded” adds a separate entry of the source. Structures can show the parent of a compound that is named as a salt. Where two headings read alike, the source gives them in different places.

The subject of series [1] is mouse cortical neuron-enriched cultures. Nature of the series: RNA-seq transcriptional screen with hierarchical clustering and cluster membership. The series is classed as cell-based. The conditions noted are these: for Chemical cluster assigned by gene expression: 24 h at non-toxic concentration, hierarchical clustering of 5,121 variably expressed genes; for Transcriptional change relative to the cluster 2 signature: RNA-seq, Supplementary Fig. 9. How it is done: (§1) Cultures were treated with the non-cytotoxic dose of each chemical, by exchanging half of the original medium with chemicals at 2 × concentration in prewarmed feeding medium, on DIV 7 for 24 h in 12-well plates at a density of 5 × 10^5 cells per well. RNA was isolated using RNeasy plus mini kit (Cat. #74134, Qiagen). RNA yield and quality were determined using a Nanodrop 1000 Spectrophotometer (Thermo Scientific). Samples were further assessed for quality using either an Agilent Bioanalyzer 2100 or TapeStation 2200 to obtain a RIN. RIN values exceeding 7 were used for sequencing. RNA samples were used to generate and barcode complementary DNA libraries using the TruSeq RNA Library Preparation Kit at the UNC High Throughput Sequencing Facility. Pools of 24 multiplexed samples were sequenced per lane on an Illumina HiSeq 2500 using 50-bp paired-end reads.
(§2) RNA-seq reads were filtered using TagDust and aligned to the reference mouse genome (mm9) with TopHat using default parameters. Reads aligning to ribosomal RNA genes were removed. Transcript abundance was estimated by computing Reads per kilobase per million mapped reads (RPKM) using RefSeq gene models aggregated by gene symbol. For differential expression analyses, raw counts over RefSeq exons were used, and then were compared across samples using DESeq[62].
RPKMs for all RefSeq genes and all samples were filtered such that a given gene had >90% of samples with RPKM >0 and gene length exceeded 500 bp. RPKMs were then log10-transformed, quantile-normalized, median-centred, and the effects due to culture or sequencing batch were removed using a mixed model analysis of variance. This batch correction step was performed on individual experiments rather than chemical–vehicle ratios to reduce the effects due to variations in culture composition as well as batch-to-batch variations at the level of sequencing. Genes were then median-centred again, and filtered such that their s.d. exceeded 0.1. Chemical replicates were then combined using the median. Classes of chemicals were then discovered in two ways. First, we performed hierarchical clustering using average linkage and Pearson correlation distance measures. The boundaries of the discovered classes from clustering were set by computing pairwise Spearman correlations for all samples. A given cluster had to have at least three members with the minimum pairwise Spearman correlation coefficient exceeding 0.2, though cluster members often exceeded a correlation of 0.6 (Supplementary Fig. 5c,d). Seven chemical clusters were discovered, however one was removed due to failing to have a positive silhouette width, a metric of cluster robustness. These definitions enabled the three positive control topoisomerase inhibitors to form a cohesive group of chemicals with known structural and functional similarity (cluster 5). None of the culture or sequencing batches contributed to the formation of any one of the final six clusters (Supplementary Fig. 4).

For series [2], the system named is mouse cortical cultures. Nature of the series: RNA-seq differential expression (DESeq) against matched vehicle. The series is classed as cell-based. The conditions noted are these: 24 h. As to the method: Figure 4 Cluster 2 chemicals alter expression of a common set of genes. […] RNA-seq was performed in quadruplicate after treating cortical cultures with fenamidone (10 μM) or pyraclostrobin (0.1 μM) for 24 h (n=3 biological replicates) and compared with matched vehicle controls using DESeq to detect differentially expressed genes, listed in Supplementary Data 4.
as §1, with “[…].” for “RNA yield and quality were determined using a Nanodrop 1000 Spectrophotometer (Thermo Scientific).”
as §2

For series [3] the following is noted: cited from earlier work.
Series [4] deals with mitochondrial superoxide in cortical neurons. Kind of series: Mitochondrial superoxide detection (MitoSOX Red live-cell imaging). The settings on record: for O2− production at the sequencing concentration: seven-point concentration-response, Supplementary Fig. 8; for Effect of pretreatment on fenamidone-induced O2− production: 2 h, fenamidone 10 μM; for Mitochondrial superoxide (O2−) production: 2 h treatment, MitoSOX, vincristine 500 µM in Supplementary Fig. 10b. Type of series: cell-based, mouse.

Series [5] relates to cortical neurons. Also noted: method as in PMID 20881019. The settings on record: cited from earlier work.
Series [6] deals with purified tubulin. Kind of series: Tubulin polymerization assay (cell-free, BK011P). Type of series: biochemical. The conditions noted are these: 37 °C, fluorescence over 60 min, equimolar doses.
Series [7] has as its system cortical neurons. Nature of the series: Soma morphology (proportion of cells with altered soma morphology) in live-cell imaging. Type of series: cell-based, mouse. The settings on record: for Effect of pretreatment on fenamidone-induced soma swelling / aberrant morphology: 2 h, fenamidone 10 μM; for Soma swelling / aberrant cell morphology: 2 h treatment, vincristine 500 µM in Supplementary Fig. 10c.

The test system of series [8] is humans. The conditions noted are these: cited from earlier work.
Series [9] concerns mouse cortical neuron cultures.
The test system of series [10] is cortical neuron cultures. Also noted: method as in PMID 25404338. The settings on record: cited from earlier work.
Where [11] appears, read: pretreatment 18 h, two concentrations.

Regarding `COC(=O)N(OC)c1ccccc1COc1ccn(-c2ccc(Cl)cc2)n1` [pyraclostrobin], in [1], the “Chemical cluster assigned by gene expression” value (“Chemical cluster assigned” below) was “cluster 2”. In [2] (0.1 μM, vs vehicle, DESeq), the “log2FoldChange, gene Acta2” value is 3.944; the “log2FoldChange, gene Gpnmb” value is reported as 3.288; the “log2FoldChange, gene Hspg2” value is recorded as 3.427; the “log2FoldChange, gene Tagln” value stood at 3.548. Further, the “log2FoldChange, gene Thbs1” value in series [2] (0.1 μM, vs vehicle, DESeq) amounted to 3.263. In series [2] (fenamidone 10 μM or pyraclostrobin 0.1 μM), the “Differentially expressed genes (DESeq) compared between the two fungicides” value is “up- and downregulate a largely overlapping set of genes”. Besides, the “Neurotoxicity in a set of assays used by regulatory agencies” value in series [3] is recorded as “No evidence of neurotoxicity”.
Consider `CO/C=C(/C(=O)OC)c1ccccc1Oc1cc(Oc2ccccc2C#N)ncn1` [azoxystrobin], for which the “O2− production at the sequencing concentration” value in series [4] is “did not generate”. For the same compound, in [1], the “Chemical cluster assigned” value was “not assigned to cluster 2”.
As for `CC1(C)C(C=C(Cl)Cl)C1C(=O)OC(C#N)c1ccc(F)c(Oc2ccccc2)c1` (stereo not shown) [cyfluthrin], the “Calcium influx in cortical neurons” value in series [5] is on record as “stimulate sustained calcium influx”. For the same compound, the “Chemical cluster assigned” value in [1] is “cluster 1”.
On to `CO/C(=C/C(N)=O)[C@H](C)[C@H](/C=C/c1csc(-c2csc([C@@H](C)/C=C/C=C/C(C)C)n2)n1)OC` [myxothiazol, reference compound], for which the “Transcriptional change relative to the cluster 2 signature” value in [1] is given as “altered transcription in a manner consistent with chemicals in cluster 2”.
For `CO/N=C(/C(=O)OC)c1ccccc1COc1ccccc1C` [kresoxim-methyl], the “Transcriptional change relative to the cluster 2 signature” value in series [1] is listed as “altered transcription in a manner consistent with chemicals in cluster 2”.
As to `Cc1nn(C)c(Oc2ccccc2)c1C=NOCc1ccc(C(=O)OC(C)(C)C)cc1` [fenpyroximate], the EC50 in series [4] (Mus musculus, Cortical neurone, read-out: Superoxide production, concentration for half-maximum response (EC50)) is 7 nM. For the same compound, the “Chemical cluster assigned” value in [1] is listed as “cluster 2”.
With `CC(=O)O[C@H]1C(=O)[C@@]2(C)[C@H]([C@H](OC(=O)c3ccccc3)[C@]3(O)C[C@H](OC(=O)[C@H](O)[C@@H](NC(=O)c4ccccc4)c4ccccc4)C(C)=C1C3(C)C)[C@]1(OC(C)=O)CO[C@@H]1C[C@@H]2O` [paclitaxel, Paclitaxel], in series [4] (pretreatment 10 μM), the “Effect of pretreatment on fenamidone-induced O2− production” value is “attenuated”. Further, in series [6], the “Effect on tubulin polymerization” value is “promoted”. For the same compound, in series [7] (pretreatment 10 μM), the “Effect of pretreatment on fenamidone-induced soma swelling / aberrant morphology” value is given as “attenuated”.
With `C[S+]([O-])CCCCN=C=S` (racemic) [sulforaphane, DL-sulforophane], the “Effect of pretreatment on fenamidone-induced O2− production” value in series [4] (setting [11]) is “attenuated”. For the same compound, in series [7] (setting [11]), the “Effect of pretreatment on fenamidone-induced soma swelling / aberrant morphology” value is given as “attenuated”. Moreover, in series [8], the Autism symptoms entry is reported as “substantially reduces autism symptoms”. Besides, in series [1] (pretreatment 10 μM, 18 h, fenamidone 10 μM, 24 h), the “Effect of pretreatment on fenamidone-induced transcriptional changes (RNA-seq)” value is listed as “attenuated”.
As for `CO/N=C(/C1=NOCCO1)c1ccccc1Oc1ncnc(Oc2ccccc2Cl)c1F` [Fluoxastrobin, fluoxastrobin], the “O2− production at the sequencing concentration” value in [4] is “did not generate”. In addition, the “Chemical cluster assigned” value in series [1] is on record as “not assigned to cluster 2”.
With `C[C@@]1(c2ccc(Oc3ccccc3)cc2)OC(=O)N(Nc2ccccc2)C1=O` (racemic) [famoxadone], the “% Dead cells (vehicle subtracted)” value in series [9] was 1.213%. Also, the “Chemical cluster assigned” value in series [1] is recorded as “cluster 2”.
Take `CC[C@@]1(O)C(=O)OCc2c1cc1n(c2=O)Cc2cc3c(CN(C)C)c(O)ccc3nc2-1` [topotecan, Topotecan hydrochloride, reference compound]: the “Chemical cluster assigned” value in [1] is on record as “Cluster 5”. The Spontaneous synaptic activity entry in [10] was “reducing spontaneous synaptic activity”.
Turning to `CON=C(C(=O)OC)c1ccccc1CON=C(C)c1cccc(C(F)(F)F)c1` [trifloxystrobin], in [9] (mouse, 24 h, 10 µM), the “% Dead cells (vehicle subtracted)” value was determined as 7.404%. In addition, in series [1], the “Chemical cluster assigned” value was “cluster 2”.
On to `CC[C@]1(O)C[C@H]2CN(CCc3c([nH]c4ccccc34)[C@@](C(=O)OC)(c3cc4c(cc3OC)N(C=O)[C@H]3[C@@](O)(C(=O)OC)[C@H](OC(C)=O)[C@]5(CC)C=CCN6CC[C@]43[C@@H]65)C2)C1` [vincristine, vincristine sulfate salt], for which the “Mitochondrial superoxide (O2−) production” value is on record as “phenocopied” in series [4] and “induced; also recorded: dose-dependent” in [4] (listed as Vincristine). Further, the “Effect on tubulin polymerization” value in series [6] was “inhibited”. In addition, the “Soma swelling / aberrant cell morphology” value in series [7] was “phenocopied”; in series [7] (listed as Vincristine) it was “altered cell morphology; also recorded: dose-dependent”.
Regarding `CC(C)(C)c1ccc(CSc2cnn(C(C)(C)C)c(=O)c2Cl)cc1` [pyridaben], the “Chemical cluster assigned” value in series [1] was “cluster 2”.
On to `CC1(C)C(C(=O)OC(C#N)c2cccc(Oc3ccccc3)c2)C1(C)C` (stereo not shown) [fenpropathrin], for which the “Calcium influx in cortical neurons” value in [5] is given as “stimulate sustained calcium influx”. Also, the “Chemical cluster assigned” value in [1] is “cluster 1”.
For `CCO/N=C(\CC)C1=C(O)CC(c2c(C)cc(C)cc2C)CC1=O` (stereo not shown) [Tralkoxydim], in [9], the “% Dead cells (vehicle subtracted)” value was determined as 4.508%.
With `CCC(C)(CC)c1cc(NC(=O)c2c(OC)cccc2OC)on1` [Isoxaben], the “% Dead cells (vehicle subtracted)” value in series [9] (mouse, 24 h, 10 µM) was -1.274%.
`CCCCOC(=O)c1ccccc1C(=O)O`: the “% Dead cells (vehicle subtracted)” value in series [9] came out at 5.2539%.
In the case of `CCCCC(C#N)(Cn1cncn1)c1ccc(Cl)cc1` (stereo not shown) [Myclobutanil], the “% Dead cells (vehicle subtracted)” value in series [9] is -1.6229%.
`c1ccc2[nH]c(-c3cscn3)nc2c1` [Thiabendazole]: the “% Dead cells (vehicle subtracted)” value in series [9] (mouse, 24 h, 10 µM) is listed as -3.658%.
Regarding `Oc1ccc(C(c2ccc(O)cc2)C(Cl)(Cl)Cl)cc1`, in series [9], the “% Dead cells (vehicle subtracted)” value stood at 1.986%.
In the case of `CCCCC(O)(Cn1cncn1)c1ccc(Cl)cc1Cl` (stereo not shown) [Hexaconazole], the “% Dead cells (vehicle subtracted)” value in series [9] (mouse, 24 h, 10 µM) is recorded as -2.068%.
As for `CCOP(=S)(OCC)Oc1nc(Cl)n(C(C)C)n1` [Isazofos], the “% Dead cells (vehicle subtracted)” value in series [9] is -3.842%.
As for `O=C1c2ccccc2C(=O)N1SC(Cl)(Cl)Cl` [Folpet], in series [9] (mouse, 24 h, 10 µM), the “% Dead cells (vehicle subtracted)” value is on record as -1.248%.
Take `CC(C)=CC1C(C(=O)OCN2C(=O)C3=C(CCCC3)C2=O)C1(C)C` (stereo not shown) [Tetramethrin]: the “% Dead cells (vehicle subtracted)” value in [9] was -2.018%.
Take `O=[N+]([O-])NC1=NCCN1Cc1ccc(Cl)nc1` [Imidacloprid]: the “% Dead cells (vehicle subtracted)” value in [9] (mouse, 24 h, 10 µM) is on record as -3.0763%.
For the compound `COP(=S)(OC)Oc1ccc(SC)c(C)c1` [Fenthion], in [9], the “% Dead cells (vehicle subtracted)” value is reported as -0.5799%.
Still for that read-out and setting: in the case of `CCc1cccc(CC)c1N(COC)C(=O)CCl` [Alachlor] it was 3.545%.
